Key:
[1] = system: Mouse MC3T3-E1 pre-osteoblastic cells; assay: pre-osteoblast chemotaxis trans-well assay; assay type: cell-based; conditions: for chemotactic effect of LPA in the presence of inhibitor: inhibitor added together with LPA
Method: Mouse MC3T3-E1 pre-osteoblastic cells were seeded into the upper wells of opaque trans-well chambers that had 8.0-micron pores. LPA was added to the growth medium in the lower chamber. The number of cells that migrated through the pores and attached to the underside of the microporous membrane served as a measure of chemotaxis (chemically directed cell migration). Cells were fluorescently labeled with calcein to allow visualization on the undersides of the opaque chambers. Utilizing this assay it was determined that LPA elicited a 6.5 fold increase in pre-osteoblast when compared to cells under control conditions (growth medium in the absence of LPA).

[2] = system: MC3T3-E1 cells; assay: global gene expression profiling (Affymetrix mouse whole genome microarrays); assay type: cell-based; conditions: LPA 1.0 μM
Method: LPA also modulates the expression of a large set of pre-osteoblast genes linked to development (FIG. 2). MC3T3-E1 cells were grown in the presence or absence of a physiological level of LPA (1.0 μM). After growth of the cells, total RNA was isolated for use in global gene expression profiling. Gene expression was measured utilizing Affymetrix mouse whole genome microarrays. Data were analyzed using a suite of bioinformatics software. […] As shown, genes involved in cell development are the most statistically significant group affected by LPA.

[3] = system: Mouse MLO-Y4 osteocyte-like cells; assay: osteocyte dendrite outgrowth trans-well assay; assay type: cell-based
Method: Data are normalized to untreated control cells.
Among the effects of LPA on pre-osteoblasts is the induction of membrane extensions that resemble osteocyte dendrites. An assay was developed to study the ability of LPA to stimulate the outgrowth of dendritic processes from osteocytes in vitro, FIG. 3. Mouse MLO-Y4 osteocyte-like cells were seeded in the upper wells of opaque trans-well chambers having 1.0-micron pores which prevent the passage of whole cells but allow penetration by membrane extensions. Cells were fluorescently labeled with calcein to allow visualization of dendrites that were extended onto the undersides of the opaque chambers. It was determined that the presence of LPA in the lower chamber lead to a 7-fold increase in osteocyte dendrite outgrowth.
It is postulated that LPA enhances dendrite outgrowth in vivo, which can re-establish the osteocyte mechanosensory network during the regeneration of damaged bone.

[4] = system: drill-hole defects in the cortex of rat femurs; assay: rat femur drill-hole defect healing with PLGA implants (microCT); assay type: in vivo; conditions: PLGA+12.5 μg LPA vs PLGA+2.0 μg rhBMP2; six weeks post-treatment
Source text: Defect regions (arrows) are enlarged on the right; dotted lines depict the original defect boarders.
The inventor has shown, using rat models, that LPA enhances skeletal regeneration in vivo. The bone growth stimulatory effects of LPA were compared to those of bone morphogenetic protein 2 (BMP-2), which is an FDA approved osteoinductive additive to bone implants. Referring to FIG. 4, drill-hole defects (3-mm diameter) were introduced into the cortex of rat femurs. Implants were fabricated utilizing poly(DL-lactic-co-glycolic acid) copolymers) (PLGA). The femurs were then implanted with either LPA or a therapeutic amount (2 μg) of BMP-2 and were compared to a non-treated control. Bone healing was measured as the rate of closure of the defect as visualized in living animals by micro-computed tomography (microTC). Implants were designed as follows: PLGA alone; PLGA+12.5 μg LPA; PLGA+2.0 μg rhBMP2.
One preferred combination of the invention is LPA and BMP-2. Utilizing a rat model, the affects of LPA and LPA with BMP-2 were studied. Rat femurs were drilled to introduce a defect as set forth for FIG. 4. Implants were prepared as described above with the addition of an implant having PLGA+2.0 μg rhBMP2+12.5 μg LPA. Each corresponding drill drill-hole was implanted with: A) nothing (control); B) LPA; C) BMP-2 or D) LPA+BMP-2.

Molecule	chemotactic effect of LPA in the presence of inhibitor [1]	increase in pre-osteoblast chemotaxis compared to cells under control conditions ([1]; LPA in lower chamber, 8.0-micron pores, control = growth medium in the absence of LPA) [fold]	number of genes regulated in LPA-treated cells [2] [genes]	increase in osteocyte dendrite outgrowth ([3]; LPA in lower chamber, 1.0-micron pores, normalized to untreated control cells) [fold]	stimulation of dendritogenesis ([3]; each concentration tested)	bone healing (closure of the defect) compared with BMP-2 [4]
pertussis toxin	decreased chemotactic effect					
CCCCCCCC/C=C\CCCCCCCC(=O)OC[C@@H](O)COP(=O)([O-])O.[Na+] [LPA, lysophosphatidic acid]		6.5	513	7	significantly stimulated dendritogenesis	stimulatory properties of LPA exceed those of BMP-2
Cc1noc(-c2ccc(CSCCC(=O)O)cc2)c1NC(=O)OC(C)c1ccccc1Cl (stereo not shown) [Ki16425]	decreased chemotactic effect					
